Results published in ChEMBL document CHEMBL4316596, “Antimicrobial Peptides with High Proteolytic Resistance for Combating Gram-Negative Bacteria” (J Med Chem, 2019).

Assays:
Escherichia coli [1] = test: Antimicrobial activity against Escherichia coli ATCC 25922 after 24 hrs by NCCLS-protocol based assay; assay type: functional; conditions: ATCC 25922, 24 h
Escherichia coli [2] = test: Antimicrobial activity against Escherichia coli UB1005 after 24 hrs by NCCLS-protocol based assay; assay type: functional; conditions: UB1005, 24 h
Escherichia coli [3] = test: Antimicrobial activity against Escherichia coli 078 after 24 hrs by NCCLS-protocol based assay; assay type: functional; conditions: Escherichia coli, 078, 24 h
Escherichia coli [4] = test: Antimicrobial activity against Escherichia coli K88 after 24 hrs by NCCLS-protocol based assay; assay type: functional; conditions: K88, 24 h
Escherichia coli [5] = test: Antimicrobial activity against Escherichia coli K99 after 24 hrs by NCCLS-protocol based assay; assay type: functional; conditions: K99, 24 h
Pseudomonas aeruginosa [6] = test: Antimicrobial activity against Pseudomonas aeruginosa ATCC 27853 after 24 hrs by NCCLS-protocol based assay; assay type: functional; conditions: ATCC 27853, 24 h
Pseudomonas aeruginosa [7] = test: Antimicrobial activity against Pseudomonas aeruginosa PAO1 after 24 hrs by NCCLS-protocol based assay; assay type: functional; conditions: PAO1, 24 h
Pseudomonas aeruginosa [8] = test: Antimicrobial activity against Pseudomonas aeruginosa CICC 21630 clinical isolates after 24 hrs by NCCLS-protocol based assay; assay type: functional; conditions: CICC 21630, 24 h
Pseudomonas aeruginosa [9] = test: Antimicrobial activity against Pseudomonas aeruginosa 26305 clinical isolates after 24 hrs by NCCLS-protocol based assay; assay type: functional; conditions: Pseudomonas aeruginosa, 26305, 24 h
Pseudomonas aeruginosa [10] = test: Antimicrobial activity against Pseudomonas aeruginosa CICC 21625 clinical isolates after 24 hrs by NCCLS-protocol based assay; assay type: functional; conditions: CICC 21625, 24 h
Pseudomonas aeruginosa [11] = test: Antimicrobial activity against Pseudomonas aeruginosa 25349 clinical isolates after 24 hrs by NCCLS-protocol based assay; assay type: functional; conditions: Pseudomonas aeruginosa, 25349, 24 h
Salmonella typhimurium [12] = test: Antimicrobial activity against Salmonella typhimurium ATCC 14028 after 24 hrs by NCCLS-protocol based assay; assay type: functional, Salmonella enterica subsp. enterica serovar Typhimurium; conditions: Salmonella enterica, ATCC 14028, 24 h
Salmonella typhimurium [13] = test: Antimicrobial activity against Salmonella typhimurium C7731 after 24 hrs by NCCLS-protocol based assay; assay type: functional, Salmonella enterica subsp. enterica serovar Typhimurium; conditions: Salmonella enterica, C7731, 24 h
[14] = Antimicrobial activity against Salmonella pullorum C7913 after 24 hrs by NCCLS-protocol based assay; assay type: functional, Salmonella enterica subsp. enterica serovar Pullorum; conditions: Salmonella enterica, C7913, 24 h
Acinetobacter baumannii [15] = test: Antimicrobial activity against Acinetobacter baumannii after 24 hrs by NCCLS-protocol based assay; assay type: functional
Klebsiella pneumoniae [16] = test: Antimicrobial activity against Klebsiella pneumoniae after 24 hrs by NCCLS-protocol based assay; assay type: functional
Escherichia coli [17] = test: Bactericidal activity against Escherichia coli ATCC 25922 incubated for 4 hrs followed by culture spread on agar plates and cultured overnight; assay type: functional; conditions: ATCC 25922, 4 h, read-out: MBC>99.9
Escherichia coli [18] = test: Bactericidal activity against Escherichia coli UB1005 incubated for 4 hrs followed by culture spread on agar plates and cultured overnight; assay type: functional; conditions: UB1005, 4 h, read-out: MBC>99.9
Escherichia coli [19] = test: Bactericidal activity against Escherichia coli 078 incubated for 4 hrs followed by culture spread on agar plates and cultured overnight; assay type: functional; conditions: Escherichia coli, 078, 4 h; read-out: MBC>99.9
Escherichia coli [20] = test: Bactericidal activity against Escherichia coli K88 incubated for 4 hrs followed by culture spread on agar plates and cultured overnight; assay type: functional; conditions: K88, 4 h, read-out: MBC>99.9
Escherichia coli [21] = test: Bactericidal activity against Escherichia coli K99 incubated for 4 hrs followed by culture spread on agar plates and cultured overnight; assay type: functional; conditions: K99, 4 h, read-out: MBC>99.9
Pseudomonas aeruginosa [22] = test: Bactericidal activity against Pseudomonas aeruginosa ATCC 27853 incubated for 4 hrs followed by culture spread on agar plates and cultured overnight; assay type: functional; conditions: ATCC 27853, 4 h, read-out: MBC>99.9
Pseudomonas aeruginosa [23] = test: Bactericidal activity against Pseudomonas aeruginosa PAO1 incubated for 4 hrs followed by culture spread on agar plates and cultured overnight; assay type: functional; conditions: PAO1, 4 h, read-out: MBC>99.9
Pseudomonas aeruginosa [24] = test: Bactericidal activity against Pseudomonas aeruginosa CICC 21630 clinical isolates incubated for 4 hrs followed by culture spread on agar plates and cultured overnight; assay type: functional; conditions: CICC 21630, 4 h, read-out: MBC>99.9
Pseudomonas aeruginosa [25] = test: Bactericidal activity against Pseudomonas aeruginosa 26305 clinical isolates incubated for 4 hrs followed by culture spread on agar plates and cultured overnight; assay type: functional; conditions: Pseudomonas aeruginosa, 26305, 4 h; read-out: MBC>99.9
Pseudomonas aeruginosa [26] = test: Bactericidal activity against Pseudomonas aeruginosa CICC 21625 clinical isolates incubated for 4 hrs followed by culture spread on agar plates and cultured overnight; assay type: functional; conditions: CICC 21625, 4 h, read-out: MBC>99.9
Pseudomonas aeruginosa [27] = test: Bactericidal activity against Pseudomonas aeruginosa 25349 clinical isolates incubated for 4 hrs followed by culture spread on agar plates and cultured overnight; assay type: functional; conditions: Pseudomonas aeruginosa, 25349, 4 h; read-out: MBC>99.9
Salmonella typhimurium [28] = test: Bactericidal activity against Salmonella typhimurium ATCC 14028 incubated for 4 hrs followed by culture spread on agar plates and cultured overnight; assay type: functional, Salmonella enterica subsp. enterica serovar Typhimurium; conditions: Salmonella enterica, ATCC 14028, 4 h; read-out: MBC>99.9
Salmonella typhimurium [29] = test: Bactericidal activity against Salmonella typhimurium C7731 incubated for 4 hrs followed by culture spread on agar plates and cultured overnight; assay type: functional, Salmonella enterica subsp. enterica serovar Typhimurium; conditions: Salmonella enterica, C7731, 4 h; read-out: MBC>99.9
[30] = Bactericidal activity against Salmonella pullorum C7913 incubated for 4 hrs followed by culture spread on agar plates and cultured overnight; assay type: functional, Salmonella enterica subsp. enterica serovar Pullorum; conditions: Salmonella enterica, C7913, 4 h; read-out: MBC>99.9
Acinetobacter baumannii [31] = test: Bactericidal activity against Acinetobacter baumannii incubated for 4 hrs followed by culture spread on agar plates and cultured overnight; assay type: functional; conditions: read-out: MBC>99.9
Klebsiella pneumoniae [32] = test: Bactericidal activity against Klebsiella pneumoniae incubated for 4 hrs followed by culture spread on agar plates and cultured overnight; assay type: functional; conditions: read-out: MBC>99.9

MIC95 (Escherichia coli [1]) [µM]	MIC95 (Escherichia coli [2]) [µM]	MIC95 (Escherichia coli [3]) [µM]	MIC95 (Escherichia coli [4]) [µM]	MIC95 (Escherichia coli [5]) [µM]	MIC95 (Pseudomonas aeruginosa [6]) [µM]	MIC95 (Pseudomonas aeruginosa [7]) [µM]	MIC95 (Pseudomonas aeruginosa [8]) [µM]	MIC95 (Pseudomonas aeruginosa [9]) [µM]	MIC95 (Pseudomonas aeruginosa [10]) [µM]	MIC95 (Pseudomonas aeruginosa [11]) [µM]	MIC95 (Salmonella typhimurium [12]) [µM]	MIC95 (Salmonella typhimurium [13]) [µM]	MIC95 [14] [µM]	MIC95 (Acinetobacter baumannii [15]) [µM]	MIC95 (Klebsiella pneumoniae [16]) [µM]	Substance	MBC (Escherichia coli [17]) [µM]	MBC (Escherichia coli [18]) [µM]	MBC (Escherichia coli [19]) [µM]	MBC (Escherichia coli [20]) [µM]	other results
8	4	8	1	4	32	64	> 64	> 64	> 64	> 64	8	16	8	4	8	H-IRPIIRPIIRPIIRPIIRPI-NH2	8	8	16	1	MBC (Escherichia coli [21]): 4 µM; MBC (Pseudomonas aeruginosa [22]): 64 µM; MBC (Pseudomonas aeruginosa [23]): 64 µM; MBC (Pseudomonas aeruginosa [24]): > 64 µM; MBC (Pseudomonas aeruginosa [25]): > 64 µM; MBC (Pseudomonas aeruginosa [26]): > 64 µM; MBC (Pseudomonas aeruginosa [27]): > 64 µM; MBC (Salmonella typhimurium [28]): 8 µM; MBC (Salmonella typhimurium [29]): 16 µM; MBC [30]: 8 µM; MBC (Acinetobacter baumannii [31]): 4 µM; MBC (Klebsiella pneumoniae [32]): 16 µM
2	2	2	2	1	8	4	> 64	> 64	> 64	> 64	8	64	4	2	4	H-IRPIIRPIIRPIIRPIIRPIIRPIIRPIIRPI-NH2	2	2	2	2	MBC (Escherichia coli [21]): 2 µM; MBC (Pseudomonas aeruginosa [22]): 8 µM; MBC (Pseudomonas aeruginosa [23]): 4 µM; MBC (Pseudomonas aeruginosa [24]): > 64 µM; MBC (Pseudomonas aeruginosa [25]): > 64 µM; MBC (Pseudomonas aeruginosa [26]): > 64 µM; MBC (Pseudomonas aeruginosa [27]): > 64 µM; MBC (Salmonella typhimurium [28]): 16 µM; MBC (Salmonella typhimurium [29]): > 64 µM; MBC [30]: 4 µM; MBC (Acinetobacter baumannii [31]): 4 µM; MBC (Klebsiella pneumoniae [32]): 8 µM
16	16	32	16	16	> 64	> 64	> 64	> 64	> 64	> 64	> 64	> 64	32	4	> 64	H-LKPLLKPLLKPLLKPL-NH2	32	64	64	16	MBC (Escherichia coli [21]): 32 µM; MBC (Pseudomonas aeruginosa [22]): > 64 µM; MBC (Pseudomonas aeruginosa [23]): > 64 µM; MBC (Pseudomonas aeruginosa [24]): > 64 µM; MBC (Pseudomonas aeruginosa [25]): > 64 µM; MBC (Pseudomonas aeruginosa [26]): > 64 µM; MBC (Pseudomonas aeruginosa [27]): > 64 µM; MBC (Salmonella typhimurium [28]): > 64 µM; MBC (Salmonella typhimurium [29]): > 64 µM; MBC [30]: 64 µM; MBC (Acinetobacter baumannii [31]): 8 µM; MBC (Klebsiella pneumoniae [32]): > 64 µM
2	2	4	2	2	16	> 64	32	32	> 64	32	8	16	4	4	32	H-LKPLLKPLLKPLLKPLLKPL-NH2	4	8	8	2	MBC (Escherichia coli [21]): 4 µM; MBC (Pseudomonas aeruginosa [22]): 16 µM; MBC (Pseudomonas aeruginosa [23]): > 64 µM; MBC (Pseudomonas aeruginosa [24]): 64 µM; MBC (Pseudomonas aeruginosa [25]): 64 µM; MBC (Pseudomonas aeruginosa [26]): > 64 µM; MBC (Pseudomonas aeruginosa [27]): 64 µM; MBC (Salmonella typhimurium [28]): 16 µM; MBC (Salmonella typhimurium [29]): 16 µM; MBC [30]: 8 µM; MBC (Acinetobacter baumannii [31]): 4 µM; MBC (Klebsiella pneumoniae [32]): 64 µM
